Here are results for 1 substance from patent US4550186A, “Binuclear copper (II) carboxylates formed from amine-carboxyboranes” (Duke University, priority 1983, dated 1985).

The assay addresses T1, ribonucleotide reductase (Mus musculus, UniProt P07742+P11157).
T1 construct: endogenous in cells; host or cells: Ehrlich ascites tumor cells
T1 sequence (P07742 1-792): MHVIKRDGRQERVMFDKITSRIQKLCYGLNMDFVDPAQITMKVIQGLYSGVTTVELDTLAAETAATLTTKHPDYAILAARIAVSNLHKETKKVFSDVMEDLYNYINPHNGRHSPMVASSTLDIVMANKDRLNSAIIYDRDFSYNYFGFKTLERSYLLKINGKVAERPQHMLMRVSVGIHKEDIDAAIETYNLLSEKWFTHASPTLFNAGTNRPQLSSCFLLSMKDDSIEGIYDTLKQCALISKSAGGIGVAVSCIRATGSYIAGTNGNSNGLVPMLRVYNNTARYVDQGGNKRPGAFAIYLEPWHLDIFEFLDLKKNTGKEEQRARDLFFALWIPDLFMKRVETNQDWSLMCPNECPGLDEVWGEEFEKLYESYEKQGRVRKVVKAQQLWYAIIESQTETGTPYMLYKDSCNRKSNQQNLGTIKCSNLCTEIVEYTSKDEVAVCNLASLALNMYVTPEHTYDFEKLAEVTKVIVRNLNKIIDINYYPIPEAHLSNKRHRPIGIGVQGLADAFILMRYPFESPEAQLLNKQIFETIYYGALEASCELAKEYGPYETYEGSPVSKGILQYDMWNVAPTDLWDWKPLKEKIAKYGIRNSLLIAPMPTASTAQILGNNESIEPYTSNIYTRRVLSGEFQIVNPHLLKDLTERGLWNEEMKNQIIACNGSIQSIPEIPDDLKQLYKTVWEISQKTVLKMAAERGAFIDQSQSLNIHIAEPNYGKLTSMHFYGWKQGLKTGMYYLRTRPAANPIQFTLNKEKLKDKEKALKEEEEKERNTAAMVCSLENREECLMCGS
T1 sequence (P11157 1-390): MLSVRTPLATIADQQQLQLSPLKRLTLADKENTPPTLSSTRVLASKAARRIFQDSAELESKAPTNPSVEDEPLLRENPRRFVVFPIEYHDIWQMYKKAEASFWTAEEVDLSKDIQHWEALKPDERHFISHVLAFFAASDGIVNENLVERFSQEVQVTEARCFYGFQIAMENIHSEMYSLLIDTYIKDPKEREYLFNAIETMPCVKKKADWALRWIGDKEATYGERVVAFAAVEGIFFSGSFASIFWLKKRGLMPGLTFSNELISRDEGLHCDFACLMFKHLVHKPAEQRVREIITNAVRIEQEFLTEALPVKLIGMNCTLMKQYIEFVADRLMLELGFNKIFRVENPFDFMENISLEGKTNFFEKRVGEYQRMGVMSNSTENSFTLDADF
Description: In vitro ribonucleotide reductase activity. The format is biochemical. As to conditions: 0.25 to 1.0 mM. The protocol: CF1 male mice (~30 g) were implanted with 2×10^6 Ehrlich ascites tumor cells, intraperitoneally on Day 0. Compound I was suspended by homogenation in 0.05% polysorbate.80-water and administered intraperitoneally at 10 and 20 mg/kg for 9 days to determine its effectiveness for inhibition of tumor growth. Mice were sacrificed on Day 10, and the ascites fluid was collected from the peritoneal cavity. The volume and ascrit (packed cell volume) were determined for each animal and the percent inhibition of tumor growth was calculated. For the metabolic studies, mice were treated on Days 8 and 9 with 10 mg/kg of Compound I, intraperitoneally. […]
Carbamyl phosphate synthetase activity was determined using the reaction medium of Kalman et al [Am. […] Citrulline formed from ornithine was measured at 490 nm by the method of Archibald [J. Biol. Chem., 156, 121 (1944)]. […] The ^14 CO2 generated in 15 min was trapped in 1M KOH and counted. Thymidylate synthetase activity was determined using a post-mitochondrial supernatant (9000 g×10 min) and 5 μCi of 5-^3 H-deoxyuridine monophosphate (14 Ci/mmol) according to the method of Kampf et al [ J. Med. Chem., 19, 903 (1976)]. ^14 C-Formate incorporation into purines was determined by the method of Spassova et al [Biochem. Pharmacol., 25, 923 (1976)] using 0.5 μCi of ^14 C-formic acid (52.0 mCi/mmol). […] The Rf value for xanthine monophosphate was scraped and counted. […]

With “{Cu[(CH3)3 N.BH2 CO2 ]2.(CH3)3 N.BH2 COOH} [Compound I]”, the ribonucleotide reductase inhibition entry is listed as “not inhibited”.
